Test results as given in ChEMBL document CHEMBL1201862, “PubChem BioAssay data set” (2004).
Where “and” joins values, the source holds several entries; their conditions need not be identical. Identical values can stand only once.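 Protocol summary: plate cells (96-well), add compound at 5 concentrations, incubate 48 h, interpolate endpoints linearly. GI50: concentration for 50% inhibition of growth.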 Calls of active or inactive are those of the source. Cut-off read from the data, not from the text of the source: active = GI50 up to about 1.1 µM and inactive = higher. Non-standard residues stand in square brackets, D forms with d. Residues, ends and D or L forms follow the SMILES beside them. ξ: configuration not given here. *: point of attachment. ξF = NC(Cc1ccccc1)C(=O)O; Cbz = O=C(OCc1ccccc1)*; Aib = CC(C)(N)C(=O)O

What was measured:
Experiment in all cases: DTP human tumour cell line panel, 48 h
SK-OV-3 = tested on: SK-OV-3
MOLT-4 = tested on: MOLT-4
DMS-114 = tested on: DMS-114
NCI-H522 = tested on: NCI-H522
OVCAR-5 = tested on: OVCAR-5
IGROV-1 = tested on: IGROV-1
SNB-75 = tested on: SNB-75
DMS-273 = tested on: DMS-273
RXF 393 = tested on: RXF 393
UACC-257 = tested on: UACC-257
SF-539 = tested on: SF-539
DLD-1 = tested on: DLD-1
SNB-78 = tested on: SNB-78
XF498 = tested on: XF498
A498 = tested on: A498
M19-MEL = tested on: M19-MEL
Hs-578T = tested on: Hs-578T
T47D = tested on: T47D
MDA-MB-231 = tested on: MDA-MB-231
BT-549 = tested on: BT-549

Row | SMILES | GI50 (SK-OV-3) | GI50 (MOLT-4) | GI50 (DMS-114) | GI50 (NCI-H522) | GI50 (OVCAR-5) | GI50 (IGROV-1) | GI50 (SNB-75) | GI50 (DMS-273) | GI50 (RXF 393) | GI50 (UACC-257) | GI50 (SF-539) | GI50 (DLD-1) | GI50 (SNB-78) | GI50 (XF498) | GI50 (A498) | GI50 (M19-MEL) | GI50 (Hs-578T) | GI50 (T47D) | GI50 (MDA-MB-231) | GI50 (BT-549)
1 | CC1(C)Cc2nnsc2C2=C1C(=O)CCS2 | > 100 µM (inactive) | > 100 µM (inactive) | > 100 µM (inactive) | > 100 µM (inactive) | > 100 µM (inactive) | > 100 µM (inactive) | 24 µM (inactive) | > 100 µM (inactive) | > 100 µM (inactive) | > 100 µM (inactive) | > 100 µM (inactive) | > 100 µM (inactive) |  |  |  |  |  |  |  | 
2 | O=C(Nc1nnc(S)[nH]1)C(=O)C(c1cnc2ccc([N+](=O)[O-])cc2n1)[N+](=O)[O-] (stereo not given) | > 100 µM (inactive) | > 100 µM (inactive) | 47 µM (inactive) | 16.2 µM (inactive) | > 100 µM (inactive) | > 100 µM (inactive) | > 100 µM (inactive) |  | > 100 µM (inactive) | > 100 µM (inactive) | > 100 µM (inactive) | > 100 µM (inactive) | > 100 µM (inactive) | > 100 µM (inactive) | > 100 µM (inactive) | > 100 µM (inactive) |  |  |  | 
3 | O=C1c2[nH]c3ccc(Br)cc3c2CCN1Cc1ccc(Cl)cc1 |  |  |  | 17.9 µM (inactive) | 12.5 µM (inactive) | 16.7 µM (inactive) | 20.9 µM (inactive) |  | 16.9 µM (inactive) | 15.3 µM (inactive) | 10.7 µM (inactive) |  |  |  | 17.1 µM (inactive) |  | 17.1 µM (inactive) | 13.4 µM (inactive) | 11.9 µM (inactive) | 
4 | COc1ccc(-n2cnnc2-c2nsc3ccccc23)cc1 |  | > 100 µM (inactive) | > 100 µM (inactive) |  | > 100 µM (inactive) | > 100 µM (inactive) | 22.2 µM (inactive) | 44.7 µM (inactive) | 12.4 µM (inactive) | > 100 µM (inactive) | 23.4 µM (inactive) |  | > 100 µM (inactive) |  |  | > 100 µM (inactive) |  |  |  | 
5 | c1cc(CNC2C3CCC(C3)C2c2c[nH]c3ccccc23)cc(CNC2C3CCC(C3)C2c2c[nH]c3ccccc23)c1 (stereo not given) | 1.85 µM (inactive) and 1.8 µM (inactive) |  |  | 1.12 µM (active) and 1.36 µM (inactive) | 1.84 µM (inactive) and 1.82 µM (inactive) | 1.35 µM (inactive) and 1.59 µM (inactive) | 752 nM (active) and 1.3 µM (inactive) |  | 1.22 µM (inactive) and 1.31 µM (inactive) |  |  |  |  |  |  |  | 1.43 µM (inactive) and 1.62 µM (inactive) | 1.75 µM (inactive) and 1.74 µM (inactive) | 1.59 µM (inactive) and 1.51 µM (inactive) | 1.73 µM (inactive) and 1.75 µM (inactive)
6 | COc1ccc(N2C(=O)C(=O)C3(CCCCC3)C2=O)c2ccccc12 | > 10 µM (inactive) | > 10 µM (inactive) |  | > 10 µM (inactive) | > 10 µM (inactive) | > 10 µM (inactive) | > 10 µM (inactive) |  | > 10 µM (inactive) |  | > 10 µM (inactive) |  |  |  | > 10 µM (inactive) |  | > 10 µM (inactive) | > 10 µM (inactive) | > 10 µM (inactive) | 
7 | CN1C(=O)c2ccccc2NC(=O)c2cnn(C)c21 | > 100 µM (inactive) | > 100 µM (inactive) | > 100 µM (inactive) | > 100 µM (inactive) | > 100 µM (inactive) | > 100 µM (inactive) | > 100 µM (inactive) | > 100 µM (inactive) | > 100 µM (inactive) | > 100 µM (inactive) | > 100 µM (inactive) | > 100 µM (inactive) | > 100 µM (inactive) | > 100 µM (inactive) | > 100 µM (inactive) | > 100 µM (inactive) |  |  |  | 
8 | C=CC(OC(C)=O)c1ccc(OC(C)=O)cc1 (stereo not given) | 17.5 µM (inactive) | 3.31 µM (inactive) |  | 1.91 µM (inactive) | 9.27 µM (inactive) | 15.7 µM (inactive) | 3.88 µM (inactive) |  | 14 µM (inactive) | 6.04 µM (inactive) | 2.08 µM (inactive) |  |  |  | 12 µM (inactive) |  | 2.37 µM (inactive) | 2.72 µM (inactive) | 3.3 µM (inactive) | 8.93 µM (inactive)
9 | CCN(CC)CCn1c(=O)c2c(C)c3oc4ccccc4oc3c(C)c2c1=O | > 100 µM (inactive) | > 100 µM (inactive) |  | > 100 µM (inactive) | > 100 µM (inactive) | > 100 µM (inactive) | > 100 µM (inactive) |  | > 100 µM (inactive) | > 100 µM (inactive) | > 100 µM (inactive) |  |  |  | > 100 µM (inactive) |  | > 100 µM (inactive) |  | > 100 µM (inactive) | > 100 µM (inactive)
10 | COc1ccc(N2NC(c3ccccc3)(c3ccccc3)C(C)C2=O)cc1 (stereo not given) |  | 49.2 µM (inactive) |  | 43.9 µM (inactive) | 56.2 µM (inactive) | > 100 µM (inactive) | > 100 µM (inactive) |  | 52.4 µM (inactive) | 51.3 µM (inactive) | 85.1 µM (inactive) |  |  |  | > 100 µM (inactive) |  | 67.5 µM (inactive) | 39 µM (inactive) | 52.1 µM (inactive) | > 100 µM (inactive)
11 | COC1=CC(=O)c2c(c(O)c3oc4cc(OC)cc(C)c4c(=O)c3c2O)C1=O [BIKAVERIN] | 1.56 µM (inactive) | 0.671 µM (active) | 0.462 µM (active) | 0.716 µM (active) | 1.97 µM (inactive) | 1.08 µM (active) | 1.21 µM (inactive) | 0.759 µM (active) | 0.912 µM (active) | 1.2 µM (inactive) | 1.32 µM (inactive) | 1.8 µM (inactive) | 3.41 µM (inactive) | 0.942 µM (active) | 1.37 µM (inactive) | 0.908 µM (active) |  |  |  | 
12 | O=c1sc2ccccc2n1CC1CS1 (stereo not given) | > 100 µM (inactive) | > 100 µM (inactive) | > 100 µM (inactive) | > 100 µM (inactive) | > 100 µM (inactive) | > 100 µM (inactive) |  | > 100 µM (inactive) | > 100 µM (inactive) |  | > 100 µM (inactive) |  |  | > 100 µM (inactive) |  | > 100 µM (inactive) |  |  |  | 
13 | C/C(CCOC1CCCCO1)=C(\C)[Si](C)(C)C (stereo not given) | > 10 µM (inactive) | 72.8 µM (inactive) | > 100 µM (inactive) | > 100 µM (inactive) | > 100 µM (inactive) | > 100 µM (inactive) | > 100 µM (inactive) |  |  | > 100 µM (inactive) | > 100 µM (inactive) | > 100 µM (inactive) | > 100 µM (inactive) | > 100 µM (inactive) | > 100 µM (inactive) | > 100 µM (inactive) |  |  |  | 
14 | C[n+]1cccc2c(=O)c3ccccc3oc21 | > 100 µM (inactive) |  |  | > 100 µM (inactive) | > 100 µM (inactive) | > 100 µM (inactive) | > 100 µM (inactive) |  | > 100 µM (inactive) |  | > 100 µM (inactive) |  |  |  | > 100 µM (inactive) |  | > 100 µM (inactive) | > 100 µM (inactive) | > 100 µM (inactive) | 
15 | CN(C)CCNc1ccc(NCC[N+](C)(C)Cc2ccc([N+](=O)[O-])cc2)c2c1C(=O)c1ccccc1C2=O | > 25 µM (inactive) | 9.04 µM (inactive) |  | 8.73 µM (inactive) | > 25 µM (inactive) | 14.5 µM (inactive) | > 25 µM (inactive) |  | > 25 µM (inactive) | 8.41 µM (inactive) |  |  |  |  | 17.5 µM (inactive) |  | 19.3 µM (inactive) | > 25 µM (inactive) | 4.86 µM (inactive) | > 25 µM (inactive)
16 | Nc1ccn(C2OC(COP(=O)(O)Oc3ccccc3)C(O)C2O)c(=O)n1 (stereo not given) | > 100 µM (inactive) | 0.979 µM (active) | 13.7 µM (inactive) | 16.6 µM (inactive) | > 100 µM (inactive) | > 56.5 µM (inactive) | > 100 µM (inactive) | 18.4 µM (inactive) | > 45.8 µM (inactive) | > 95.9 µM (inactive) | 93.3 µM (inactive) | > 100 µM (inactive) | > 100 µM (inactive) | < 0.01 µM (active) | 4.06 µM (inactive) | 50.2 µM (inactive) |  |  |  | 
17 | CCOC(=O)CNC(=O)C(Cc1ccccc1)NC(=O)C(C)(C)NC(=O)OCc1ccccc1 (stereo not given) (Cbz-[Aib]-[ξF]-Gly-OEt) |  | 29.4 µM (inactive) |  | 29.8 µM (inactive) | > 100 µM (inactive) | > 100 µM (inactive) |  |  |  | 33.1 µM (inactive) |  |  |  |  | > 100 µM (inactive) |  |  | 77.8 µM (inactive) | > 100 µM (inactive) | 
18 | C=CCCCC12CCCc3cccc(c31)NC2=O (stereo not given) | 19.7 µM (inactive) | 18.8 µM (inactive) | 17.3 µM (inactive) | 16.9 µM (inactive) | 19.3 µM (inactive) | 17.1 µM (inactive) |  |  | 17.6 µM (inactive) | 22.1 µM (inactive) | 19.6 µM (inactive) | 19.6 µM (inactive) |  | 20.6 µM (inactive) | 19.6 µM (inactive) |  |  |  |  | 
19 | O=c1[nH]c(=S)[nH]c2c(C3OC(CO)C(O)C3O)nsc12 (stereo not given) | > 100 µM (inactive) | > 100 µM (inactive) |  |  | > 100 µM (inactive) | > 100 µM (inactive) | > 100 µM (inactive) |  | > 100 µM (inactive) | > 100 µM (inactive) | > 100 µM (inactive) |  |  |  | > 100 µM (inactive) |  | > 100 µM (inactive) | > 100 µM (inactive) |  | > 100 µM (inactive)
